Test results published in patent publication US4639433A, “Glycopeptide derivatives” (Eli Lilly and Company, priority 1985, dated 1987).
Values after ≈ are worked out from the molar mass of the structure shown.

Experiments:
Details in all cases: agar dilution
[1] = system: Streptococcus sp. group D 2041
[2] = system: Staphylococcus aureus S13E
[3] = system: Staphylococcus aureus X400
[4] = system: Streptococcus faecium ATCC 9790
[5] = system: Staphylococcus aureus NRRL B313
[6] = system: Haemophilus influenzae 76
[7] = system: Streptococcus pyogenes C203
[8] = system: Staphylococcus epidermidis EPI1
[9] = system: Klebsiella pneumoniae X68
[10] = system: Haemophilus influenzae C.L.
[11] = system: Streptococcus pneumoniae Park 1
[12] = system: Staphylococcus aureus V41
[13] = system: Staphylococcus epidermidis 222
Escherichia coli EC14 = system: Escherichia coli EC14
Escherichia coli TEM = system: Escherichia coli TEM
[14] = system: Klebsiella pneumoniae X26
[15] = system: Klebsiella pneumoniae KAE
Escherichia coli N10 = system: Escherichia coli N10

SMILES | MIC [1] [µg/mL] | MIC [2] [µg/mL] | MIC [3] [µg/mL] | MIC [4] [µg/mL] | MIC [5] [µg/mL] | MIC [6] | MIC [7] [µg/mL] | MIC [8] | MIC [9] | MIC [10] | MIC [11] [µg/mL] | MIC [12] [µg/mL] | MIC [13] [µg/mL] | MIC (Escherichia coli EC14) | MIC (Escherichia coli TEM) | MIC [14] | MIC [15] | MIC (Escherichia coli N10)
CCCCCCCC(=O)N(C)C(CC(C)C)C(=O)NC1C(=O)NC(CC(N)=O)C(=O)NC2C(=O)NC3C(=O)NC(C(=O)NC(C(=O)O)c4cc(O)cc(O)c4-c4cc3ccc4O)C(O)c3ccc(c(Cl)c3)Oc3cc2cc(c3OC2OC(CO)C(O)C(O)C2OC2CC(C)(N)C(O)C(C)O2)Oc2ccc(cc2Cl)C1O (stereo not drawn) [Compound 4, N^leu --(1-oxo-n-octyl)vancomycin] | 16 (≈ 10.2 µM) | 8 (≈ 5.08 µM) | 8 (≈ 5.08 µM) | 8 (≈ 5.08 µM) | 8 (≈ 5.08 µM) | -- (not active at 128 mcg/ml) | 4 (≈ 2.54 µM) | 32 µg/mL (≈ 20.3 µM) | -- (not active at 128 mcg/ml) | -- (not active at 128 mcg/ml) | 2 (≈ 1.27 µM) | 8 (≈ 5.08 µM) | 16 (≈ 10.2 µM) | -- (not active at 128 mcg/ml) | -- (not active at 128 mcg/ml) | -- (not active at 128 mcg/ml) | -- (not active at 128 mcg/ml) | -- (not active at 128 mcg/ml)
CCCCCCCC(=O)NC1(C)CC(OC2C(Oc3c4cc5cc3Oc3ccc(cc3Cl)C(O)C(NC(=O)C(CC(C)C)N(C)C(=O)CCCCCCC)C(=O)NC(CC(N)=O)C(=O)NC5C(=O)NC3C(=O)NC(C(=O)NC(C(=O)O)c5cc(O)cc(O)c5-c5cc3ccc5O)C(O)c3ccc(c(Cl)c3)O4)OC(CO)C(O)C2O)OC(C)C1O (stereo not drawn) [Compound 5, N^van,N^leu --di(1-oxo-n-octyl)vancomycin] | 32 (≈ 18.8 µM) | 32 (≈ 18.8 µM) | 32 (≈ 18.8 µM) | 32 (≈ 18.8 µM) | 32 (≈ 18.8 µM) | -- (not active at 128 mcg/ml) | 32 (≈ 18.8 µM) | -- (not active at 128 mcg/ml) | -- (not active at 128 mcg/ml) | -- (not active at 128 mcg/ml) | 32 (≈ 18.8 µM) | 32 (≈ 18.8 µM) | 64 (≈ 37.6 µM) | -- (not active at 128 mcg/ml) | -- (not active at 128 mcg/ml) | -- (not active at 128 mcg/ml) | -- (not active at 128 mcg/ml) | -- (not active at 128 mcg/ml)
CCCCCCCCCC(=O)NC1(C)CC(OC2C(Oc3c4cc5cc3Oc3ccc(cc3Cl)C(O)C(NC(=O)C(CC(C)C)N(C)C(=O)CCCCCCCCC)C(=O)NC(CC(N)=O)C(=O)NC5C(=O)NC3C(=O)NC(C(=O)NC(C(=O)O)c5cc(O)cc(O)c5-c5cc3ccc5O)C(O)c3ccc(c(Cl)c3)O4)OC(CO)C(O)C2O)OC(C)C1O (stereo not drawn) [Compound 8, N^van,N^leu-di(1-oxo-n-decyl)vancomycin] | 8 (≈ 4.55 µM) | 8 (≈ 4.55 µM) | 4 (≈ 2.28 µM) | 8 (≈ 4.55 µM) | 2 (≈ 1.14 µM) | -- (not active at 128 mcg/ml) | 4 (≈ 2.28 µM) | 32 µg/mL (≈ 18.2 µM) | -- (not active at 128 mcg/ml) | -- (not active at 128 mcg/ml) | 16 (≈ 9.1 µM) | 4 (≈ 2.28 µM) | 8 (≈ 4.55 µM) | -- (not active at 128 mcg/ml) | -- (not active at 128 mcg/ml) | -- (not active at 128 mcg/ml) | -- (not active at 128 mcg/ml) | -- (not active at 128 mcg/ml)
C=CCCCCCCCCC(=O)N(C)C(CC(C)C)C(=O)NC1C(=O)NC(CC(N)=O)C(=O)NC2C(=O)NC3C(=O)NC(C(=O)NC(C(=O)O)c4cc(O)cc(O)c4-c4cc3ccc4O)C(O)c3ccc(c(Cl)c3)Oc3cc2cc(c3OC2OC(CO)C(O)C(O)C2OC2CC(C)(N)C(O)C(C)O2)Oc2ccc(cc2Cl)C1O (stereo not drawn) [Compound 10, N^leu --(1-oxo-10-n-decenyl)vancomycin] | 4 (≈ 2.48 µM) | 4 (≈ 2.48 µM) | 4 (≈ 2.48 µM) | 2 (≈ 1.24 µM) | 4 (≈ 2.48 µM) | -- (not active at 128 mcg/ml) | 1 (≈ 0.619 µM) | 32 µg/mL (≈ 19.8 µM) | -- (not active at 128 mcg/ml) | -- (not active at 128 mcg/ml) | 2 (≈ 1.24 µM) | 4 (≈ 2.48 µM) | 8 (≈ 4.95 µM) | -- (not active at 128 mcg/ml) | -- (not active at 128 mcg/ml) | -- (not active at 128 mcg/ml) | -- (not active at 128 mcg/ml) | -- (not active at 128 mcg/ml)
C=CCCCCCCCCC(=O)NC1(C)CC(OC2C(Oc3c4cc5cc3Oc3ccc(cc3Cl)C(O)C(NC(=O)C(CC(C)C)N(C)C(=O)CCCCCCCCC=C)C(=O)NC(CC(N)=O)C(=O)NC5C(=O)NC3C(=O)NC(C(=O)NC(C(=O)O)c5cc(O)cc(O)c5-c5cc3ccc5O)C(O)c3ccc(c(Cl)c3)O4)OC(CO)C(O)C2O)OC(C)C1O (stereo not drawn) [Compound 11, N^van,N^leu --(1-oxo-10-n-decenyl)vancomycin] | 16 (≈ 8.98 µM) | 8 (≈ 4.49 µM) | 16 (≈ 8.98 µM) | 8 (≈ 4.49 µM) | 8 (≈ 4.49 µM) | 32 µg/mL (≈ 18 µM) | 2 (≈ 1.12 µM) | 64 µg/mL (≈ 35.9 µM) | 128 µg/mL (≈ 71.8 µM) | 32 µg/mL (≈ 18 µM) | 4 (≈ 2.24 µM) | 8 (≈ 4.49 µM) | 16 (≈ 8.98 µM) | 128 µg/mL (≈ 71.8 µM) | 64 µg/mL (≈ 35.9 µM) | 128 µg/mL (≈ 71.8 µM) | 128 µg/mL (≈ 71.8 µM) | 128 µg/mL (≈ 71.8 µM)
CCCCCCCCCCCC(=O)N(C)C(CC(C)C)C(=O)NC1C(=O)NC(CC(N)=O)C(=O)NC2C(=O)NC3C(=O)NC(C(=O)NC(C(=O)O)c4cc(O)cc(O)c4-c4cc3ccc4O)C(O)c3ccc(c(Cl)c3)Oc3cc2cc(c3OC2OC(CO)C(O)C(O)C2OC2CC(C)(N)C(O)C(C)O2)Oc2ccc(cc2Cl)C1O (stereo not drawn) [Compound 13, N^leu --(1-oxo-n-dodecyl)vancomycin] | 8 (≈ 4.9 µM) | 8 (≈ 4.9 µM) | 8 (≈ 4.9 µM) | 8 (≈ 4.9 µM) | 8 (≈ 4.9 µM) | 32 µg/mL (≈ 19.6 µM) | 8 (≈ 4.9 µM) | 32 µg/mL (≈ 19.6 µM) | -- (not active at 128 mcg/ml) | 128 µg/mL (≈ 78.5 µM) | 8 (≈ 4.9 µM) | 8 (≈ 4.9 µM) | 8 (≈ 4.9 µM) | -- (not active at 128 mcg/ml) | -- (not active at 128 mcg/ml) | -- (not active at 128 mcg/ml) | -- (not active at 128 mcg/ml) | -- (not active at 128 mcg/ml)
CCC(CC)C(=O)NC1(C)CC(OC2C(Oc3c4cc5cc3Oc3ccc(cc3Cl)C(O)C3NC(=O)C(NC(=O)C5NC(=O)C(CC(N)=O)NC(=O)C(NC(=O)C(CC(C)C)NC)C(O)c5ccc(c(Cl)c5)O4)c4ccc(O)c(c4)-c4c(O)cc(O)cc4C(C(=O)O)NC3=O)OC(CO)C(O)C2O)OC(C)C1O (stereo not drawn) [Compound 22, N^van --(2-ethyl-1-oxo-n-butyl)vancomycin] | 8 (≈ 5.17 µM) | 2 (≈ 1.29 µM) | 2 (≈ 1.29 µM) | 2 (≈ 1.29 µM) | 2 (≈ 1.29 µM) | 128 µg/mL (≈ 82.7 µM) | 2 (≈ 1.29 µM) | 8 µg/mL (≈ 5.17 µM) | -- (not active at 128 mcg/ml) | 128 µg/mL (≈ 82.7 µM) | 2 (≈ 1.29 µM) | 2 (≈ 1.29 µM) | 2 (≈ 1.29 µM) | -- (not active at 128 mcg/ml) | -- (not active at 128 mcg/ml) | -- (not active at 128 mcg/ml) | -- (not active at 128 mcg/ml) | -- (not active at 128 mcg/ml)
CNC(CC(C)C)C(=O)NC1C(=O)NC(CC(N)=O)C(=O)NC2C(=O)NC3C(=O)NC(C(=O)NC(C(=O)O)c4cc(O)cc(O)c4-c4cc3ccc4O)C(O)c3ccc(c(Cl)c3)Oc3cc2cc(c3OC2OC(CO)C(O)C(O)C2OC2CC(C)(NC(=O)C(NC(=O)OCc3ccccc3)C(C)C)C(O)C(C)O2)Oc2ccc(cc2Cl)C1O (stereo not drawn) [Compound 32, N^van-[2-(N--Cbz--amino)-1-oxo-isopentyl]vancomycin] | 8 (≈ 4.75 µM) | 4 (≈ 2.38 µM) | 8 (≈ 4.75 µM) | 4 (≈ 2.38 µM) | 4 (≈ 2.38 µM) | 128 µg/mL (≈ 76.1 µM) | 2 (≈ 1.19 µM) | 32 µg/mL (≈ 19 µM) | -- (not active at 128 mcg/ml) | 128 µg/mL (≈ 76.1 µM) | 2 (≈ 1.19 µM) | 4 (≈ 2.38 µM) | 8 (≈ 4.75 µM) | -- (not active at 128 mcg/ml) | -- (not active at 128 mcg/ml) | -- (not active at 128 mcg/ml) | -- (not active at 128 mcg/ml) | -- (not active at 128 mcg/ml)
